Data taken from PubChem BioAssay (NCI).
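Abbreviation: GI50, concentration required for 50% inhibition of growth. TGI denotes the concentration required for complete inhibition of growth.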

Experiments:
Test in all cases: NCI-60 cell line screen, 384-well format
SK-MEL-2 melanoma = tested on: SK-MEL-2 melanoma
MALME-3M melanoma = tested on: MALME-3M melanoma
HT29 colon = tested on: HT29 colon
MCF7 breast = tested on: MCF7 breast
COLO 205 colon = tested on: COLO 205 colon
MDA-MB-231 breast = tested on: MDA-MB-231 breast
SNB-19 CNS = tested on: SNB-19 CNS
T-47D breast = tested on: T-47D breast
EKVX NSCLC = tested on: EKVX NSCLC
SNB-75 CNS = tested on: SNB-75 CNS
UACC-62 melanoma = tested on: UACC-62 melanoma
NCI-H322M lung = tested on: NCI-H322M lung
RPMI-8226 leukemia = tested on: RPMI-8226 leukemia
HOP-62 NSCLC = tested on: HOP-62 NSCLC
NCI-H23 lung = tested on: NCI-H23 lung
SF-268 CNS = tested on: SF-268 CNS
SF-295 CNS = tested on: SF-295 CNS
MOLT-4 leukemia = tested on: MOLT-4 leukemia
OVCAR-8 ovarian = tested on: OVCAR-8 ovarian
NCI-H226 lung = tested on: NCI-H226 lung
HCT-15 colon = tested on: HCT-15 colon
DU-145 prostate = tested on: DU-145 prostate
OVCAR-4 ovarian = tested on: OVCAR-4 ovarian
SK-MEL-28 melanoma = tested on: SK-MEL-28 melanoma
A498 renal = tested on: A498 renal
MDA-MB-435 melanoma = tested on: MDA-MB-435 melanoma
HL-60(TB) leukemia = tested on: HL-60(TB) leukemia
786-0 renal = tested on: 786-0 renal
HS 578T breast = tested on: HS 578T breast
A549 NSCLC = tested on: A549 NSCLC
SN12C renal = tested on: SN12C renal
MDA-MB-468 breast = tested on: MDA-MB-468 breast
OVCAR-3 ovarian = tested on: OVCAR-3 ovarian
U251 glioblastoma = tested on: U251 glioblastoma
M14 melanoma = tested on: M14 melanoma
TK-10 renal = tested on: TK-10 renal
UACC-257 melanoma = tested on: UACC-257 melanoma
BT-549 breast = tested on: BT-549 breast
SW-620 colon = tested on: SW-620 colon
HOP-92 NSCLC = tested on: HOP-92 NSCLC
NCI-H522 lung = tested on: NCI-H522 lung
SR leukemia = tested on: SR leukemia
CCRF-CEM leukemia = tested on: CCRF-CEM leukemia
ACHN renal = tested on: ACHN renal
SK-MEL-5 melanoma = tested on: SK-MEL-5 melanoma
NCI-H460 NSCLC = tested on: NCI-H460 NSCLC
RXF 393 renal = tested on: RXF 393 renal
PC-3 prostate = tested on: PC-3 prostate
IGROV1 ovarian = tested on: IGROV1 ovarian
NCI/ADR-RES ovarian = tested on: NCI/ADR-RES ovarian
OVCAR-5 ovarian = tested on: OVCAR-5 ovarian
SK-OV-3 ovarian = tested on: SK-OV-3 ovarian
SF-539 CNS = tested on: SF-539 CNS
KM12 colon = tested on: KM12 colon
CAKI-1 renal = tested on: CAKI-1 renal
HCC-2998 colon = tested on: HCC-2998 colon

CN1CCc2cc3c(cc2C1O)OCO3 (configuration not stated)
GI50 (SK-MEL-2 melanoma): > 100 µM
TGI (SK-MEL-2 melanoma): > 100 µM
GI50 (MALME-3M melanoma): > 100 µM
TGI (MALME-3M melanoma): > 100 µM
GI50 (HT29 colon): > 100 µM
TGI (HT29 colon): > 100 µM
GI50 (MCF7 breast): > 100 µM
TGI (MCF7 breast): > 100 µM
GI50 (COLO 205 colon): > 100 µM
TGI (COLO 205 colon): > 100 µM
GI50 (MDA-MB-231 breast): > 100 µM
TGI (MDA-MB-231 breast): > 100 µM
GI50 (SNB-19 CNS): > 100 µM
TGI (SNB-19 CNS): > 100 µM
GI50 (T-47D breast): > 100 µM
TGI (T-47D breast): > 100 µM
GI50 (EKVX NSCLC): > 100 µM
TGI (EKVX NSCLC): > 100 µM
GI50 (SNB-75 CNS): > 100 µM
TGI (SNB-75 CNS): > 100 µM
GI50 (UACC-62 melanoma): > 100 µM
TGI (UACC-62 melanoma): > 100 µM
GI50 (NCI-H322M lung): > 100 µM
TGI (NCI-H322M lung): > 100 µM
GI50 (RPMI-8226 leukemia): > 100 µM
TGI (RPMI-8226 leukemia): > 100 µM
GI50 (HOP-62 NSCLC): > 100 µM
TGI (HOP-62 NSCLC): > 100 µM
GI50 (NCI-H23 lung): > 100 µM
TGI (NCI-H23 lung): > 100 µM
GI50 (SF-268 CNS): > 100 µM
TGI (SF-268 CNS): > 100 µM
GI50 (SF-295 CNS): > 100 µM
TGI (SF-295 CNS): > 100 µM
GI50 (MOLT-4 leukemia): > 100 µM
TGI (MOLT-4 leukemia): > 100 µM
GI50 (OVCAR-8 ovarian): > 100 µM
TGI (OVCAR-8 ovarian): > 100 µM
GI50 (NCI-H226 lung): > 100 µM
TGI (NCI-H226 lung): > 100 µM
GI50 (HCT-15 colon): > 100 µM
TGI (HCT-15 colon): > 100 µM
GI50 (DU-145 prostate): > 100 µM
TGI (DU-145 prostate): > 100 µM
GI50 (OVCAR-4 ovarian): > 100 µM
TGI (OVCAR-4 ovarian): > 100 µM
GI50 (SK-MEL-28 melanoma): > 100 µM
TGI (SK-MEL-28 melanoma): > 100 µM
GI50 (A498 renal): > 100 µM
TGI (A498 renal): > 100 µM
GI50 (MDA-MB-435 melanoma): > 100 µM
TGI (MDA-MB-435 melanoma): > 100 µM
GI50 (HL-60(TB) leukemia): > 100 µM
TGI (HL-60(TB) leukemia): > 100 µM
GI50 (786-0 renal): > 100 µM
TGI (786-0 renal): > 100 µM
GI50 (HS 578T breast): > 100 µM
TGI (HS 578T breast): > 100 µM
GI50 (A549 NSCLC): > 100 µM
TGI (A549 NSCLC): > 100 µM
GI50 (SN12C renal): > 100 µM
TGI (SN12C renal): > 100 µM
GI50 (MDA-MB-468 breast): > 100 µM
TGI (MDA-MB-468 breast): > 100 µM
GI50 (OVCAR-3 ovarian): > 100 µM
TGI (OVCAR-3 ovarian): > 100 µM
GI50 (U251 glioblastoma): > 100 µM
TGI (U251 glioblastoma): > 100 µM
GI50 (M14 melanoma): > 100 µM
TGI (M14 melanoma): > 100 µM
GI50 (TK-10 renal): > 100 µM
TGI (TK-10 renal): > 100 µM
GI50 (UACC-257 melanoma): > 100 µM
TGI (UACC-257 melanoma): > 100 µM
GI50 (BT-549 breast): > 100 µM
TGI (BT-549 breast): > 100 µM
GI50 (SW-620 colon): > 100 µM
TGI (SW-620 colon): > 100 µM
GI50 (HOP-92 NSCLC): > 100 µM
TGI (HOP-92 NSCLC): > 100 µM
GI50 (NCI-H522 lung): > 100 µM
TGI (NCI-H522 lung): > 100 µM
GI50 (SR leukemia): > 100 µM
TGI (SR leukemia): > 100 µM
GI50 (CCRF-CEM leukemia): > 100 µM
TGI (CCRF-CEM leukemia): > 100 µM
GI50 (ACHN renal): > 100 µM
TGI (ACHN renal): > 100 µM
GI50 (SK-MEL-5 melanoma): > 100 µM
TGI (SK-MEL-5 melanoma): > 100 µM
GI50 (NCI-H460 NSCLC): > 100 µM
TGI (NCI-H460 NSCLC): > 100 µM
GI50 (RXF 393 renal): > 100 µM
TGI (RXF 393 renal): > 100 µM
GI50 (PC-3 prostate): > 100 µM
TGI (PC-3 prostate): > 100 µM
GI50 (IGROV1 ovarian): > 100 µM
TGI (IGROV1 ovarian): > 100 µM
GI50 (NCI/ADR-RES ovarian): > 100 µM
TGI (NCI/ADR-RES ovarian): > 100 µM
GI50 (OVCAR-5 ovarian): > 100 µM
TGI (OVCAR-5 ovarian): > 100 µM
GI50 (SK-OV-3 ovarian): > 100 µM
TGI (SK-OV-3 ovarian): > 100 µM
GI50 (SF-539 CNS): > 100 µM
TGI (SF-539 CNS): > 100 µM
GI50 (KM12 colon): > 100 µM
TGI (KM12 colon): > 100 µM
GI50 (CAKI-1 renal): > 100 µM
TGI (CAKI-1 renal): > 100 µM
GI50 (HCC-2998 colon): > 100 µM
TGI (HCC-2998 colon): > 100 µM
